IC50 data for 1 compound are collected here from BindingDB's records for PubMed 31931340 (n/a, 2020).

SMILES strings stand for the structures.

This assay addresses PIK3CA. The assay can be described thus: Inhibition of human P13Kalpha.

As a reminder, the IC50 is the concentration that gives 50% inhibition. `CN(c1nc(-c2cnc(N)nc2)nc(N2CCOCC2)n1)C1CCN(C(=O)c2ccccc2)CC1` showed an IC50 of 15 nM.
